From patent US20070275960A1, “Phenyl and pyridyl compounds for inflammation and immune-related uses” (Synta Pharmaceuticals Corp., priority 2006, published 2007)
Counter-ions that a name gives are not always drawn.

system: IL-2 production; assay: Inhibition of IL-2 production in PHA-activated Jurkat cells (ELISA); type: cell-based; settings: Homo sapiens, Jurkat, 20 h, PHA 2.5 μg/mL, 20 hours at 37° C., IL-2 by ELISA
Experimental: Jurkat cells were placed in a 96 well plate (0.5 million cells per well in 1% FBS medium) then a test compound of this invention was added at different concentrations. After 10 minutes, the cells were activated with PHA (final concentration 2.5 μg/mL) and incubated for 20 hours at 37° C. under CO2. The final volume was 200 μL. Following incubation, the cells were centrifuged and the supernatants collected and stored at −70° C. prior to assaying for IL-2 production. A commercial ELISA kit (IL-2 Eli-pair, Diaclone Research, Besancon, France) was used to detect production of IL-2, from which dose response curves were obtained. The IC50 value was calculated as the concentration at which 50% of maximum IL-2 production after stimulation was inhibited versus a non-stimulation control.

Row | SMILES | IC50
1 | Cc1cc(-c2ccno2)sc1-c1ccc(NC(=O)c2ccnn2C)cc1 [Compound 104, 1-Methyl-1H-pyrazol-5-carboxylic acid [4-(3-methyl-5-isoxazol-5-yl-thiophen-2-yl)-phenyl]-amide] | > 1000 nM
2 | Cc1cc(-c2ccno2)sc1-c1ccc(NC(=O)c2cnsc2)cc1 [Compound 105, Isothiazol-4-carboxylic acid [4-(3-methyl-5-isoxazol-5-yl-thiophen-2-yl)-phenyl]-amide] | 7.6 nM
3 | Cc1cc(-c2cnco2)sc1-c1ccc(NC(=O)Nc2c(F)cccc2F)cc1 [Compound 126, 1-(2,6-difluoro-phenyl)-3-[4-(5-oxazol-5-yl-3-methyl-thiophen-2-yl)-phenyl]-urea] | 2.4 nM
4 | Cc1cnccc1C(=O)Nc1ccc(-c2sc(-c3cncnc3)cc2C)cc1 [Compound 97, 3-Methyl-N-[4-(3-methyl-5-pyrimidin-5-yl-thiophen-2-yl)-phenyl]-isonicotinamide] | 7.2 nM
5 | Cc1cc(-c2ccno2)sc1-c1ccc(NC(=O)c2cnns2)cc1 [Compound 102, [1,2,3]thiadiazole-5-carboxylic acid [4-(3-methyl-5-isoxazol-5-yl-thiophen-2-yl)-phenyl]-amide] | 22 nM
6 | Cc1sc(-c2ncco2)cc1-c1ccc(NC(=O)c2c(F)cccc2F)cc1 [Compound 122, 2,6-Difluoro-N-[4-(2-methyl-5-oxazol-2yl-thiophen-3-yl)-phenyl]-benzamide] | 1.9 nM
7 | Cc1cc[nH]c1C(=O)Nc1ccc(-c2sc(-c3ccno3)cc2C)cc1 [Compound 117, 3-Methyl-1H-pyrrol-2-carboxylic acid [4-(3-methyl-5-isoxazol-5-yl-thiophen-2-yl)-phenyl]-amide] | 48.8 nM
8 | Cc1cncnc1C(=O)Nc1ccc(-c2sc(-c3cnco3)cc2C)cc1 [Compound 115, 5-Methyl-pyrimidine-4-carboxylic acid [4-(3-methyl-5-oxazol-5-yl-thiophen-2-yl)-phenyl]-amide] | 9.6 nM
9 | CCOC(=O)c1nc(-c2ccc(NC(=O)c3c(F)cccc3F)cc2)c(C)s1 [Compound 123, 2,6-Difluoro-N-[4-(5-methyl-2-ethoxycarbonyl-thiazol-4-yl)-phenyl]-benzamide] | 123 nM
10 | Cc1cnccc1C(=O)Nc1ccc(-c2sc(-c3ccno3)cc2Cl)cc1 [Compound 113, 3-Methyl-N-[4-(3-chloro-5-isoxazol-5-yl-thiophen-2-yl)-phenyl]-isonicotinamide] | 10 nM
11 | COC(=O)c1cc(C)c(-c2ccc(NC(=O)c3c(F)cccc3F)cc2)s1 [Compound 4, 5-[4-(2,6-Difluoro-benzoylamino)-phenyl]-4-methyl-thiophene-2-carboxylic acid methyl ester] | 1 nM
12 | Cc1cnccc1C(=O)Nc1ccc(-c2sc(-c3nccs3)cc2C)cc1 [Compound 111, 3-Methyl-N-[4-(3-methyl-5-thiazol-2-yl-thiophen-2-yl)-phenyl]-isonicotinamide] | 8.7 nM
13 | Cc1cc(-c2ccno2)sc1-c1ccc(NC(=O)c2csnn2)cc1 [Compound 106, [1,2,3]thiadiazol-4-carboxylic acid [4-(3-methyl-5-isoxazol-5-yl-thiophen-2-yl)-phenyl]-amide] | 83.8 nM
14 | Cc1cc(-c2ccno2)sc1-c1ccc(NCc2ccncc2F)cc1 [Compound 128, (3-Fluoro-pyridin-4-ylmethyl)-[4-(5-isoxazol-5-yl-3-methyl-thiophen-2-yl)-phenyl]-amine] | 19 nM
15 | Cc1cnccc1C(=O)Nc1ccc(-c2sc(-c3cccnc3)cc2C)cc1 [Compound 96, 3-Methyl-N-[4-(3-methyl-5-pyridin-3-yl-thiophen-2-yl)-phenyl]-isonicotinamide] | 2.1 nM
16 | COC(=O)c1cc(-c2ccc(NC(=O)c3c(F)cccc3F)cc2)c(C)s1 [Compound 1, 4-[4-(2,6-Difluoro-benzoylamino)-phenyl]-5-methyl-thiophene-2-carboxylic acid methyl ester] | 1 nM
17 | Cc1cc(-c2cnco2)sc1-c1ccc(NC(=O)c2cccn2C)cc1 [Compound 116, 1-Methyl-1H-pyrrol-2-carboxylic acid [4-(3-methyl-5-oxazol-5-yl-thiophen-2-yl)-phenyl]-amide] | 4.8 nM
18 | Cc1cc(-c2ccno2)sc1-c1ccc(NC(=O)Nc2c(F)cccc2F)cc1 [Compound 125, 1-(2,6-difluoro-phenyl)-3-[4-(5-isoxazol-5-yl-3-methyl-thiophen-2-yl)-phenyl]-urea] | 2.5 nM
19 | Cc1cc(-c2ncco2)sc1-c1ccc(NC(=O)c2snnc2C)cc1 [Compound 92, 4-Methyl-[1,2,3]thiadiazole-5-carboxylic acid [4-(3-methyl-5-oxazol-2-yl-thiophen-2-yl)-phenyl]-amide] | 4 nM
20 | Cc1cnccc1C(=O)Nc1ccc(-c2sc(-c3ccno3)cc2C)cc1 [Compound 94, 3-Methyl-N-[4-(3-methyl-5-isoxazol-5-yl-thiophen-2-yl)-phenyl]-isonicotinamide] | 5.2 nM
21 | Cc1cnccc1C(=O)Nc1ccc(-c2cc(-c3ncco3)sc2C)cc1 [Compound 124, 3-Methyl-N-[4-(2-methyl-5-oxazol-2-yl-thiophen-3-yl)-phenyl]-isonicotinamide] | 8.6 nM
22 | Cc1cc(-c2ccno2)sc1-c1ccc(NC(=O)c2cccn2C)cc1 [Compound 103, 1-Methyl-1H-pyrrol-2-carboxylic acid [4-(3-methyl-5-isoxazol-5-yl-thiophen-2-yl)-phenyl]-amide] | 3 nM
23 | Cc1ncsc1-c1ccc(NC(=O)c2c(F)cccc2F)cc1 [Compound 120, 2,6-Difluoro-N-[4-(4-methyl-thiazole-5-yl)-phenyl]-benzamide] | > 1000 nM
24 | Cc1cnccc1C(=O)Nc1ccc(-c2sc(-c3ncco3)cc2C)cc1 [Compound 93, 3-Methyl-N-[4-(3-methyl-5-oxazol-2-yl-thiophen-2-yl)-phenyl]-isonicotinamide] | 3 nM
25 | COC(=O)c1nc(C)c(-c2ccc(NC(=O)c3c(F)cccc3F)cc2)s1 [Compound 121, 2,6-Difluoro-N-[4-(4-methyl-2-methoxycarbonyl-thiazol-5-yl)-phenyl]-benzamide] | 133 nM
26 | Cc1cc(-c2cnco2)sc1-c1ccc(NC(=O)c2scnc2Cl)cc1 [Compound 110, 4-Chloro-thiazol-5-carboxylic acid [4-(3-methyl-5-oxazol-5-yl-thiophen-2-yl)-phenyl]-amide] | 7.5 nM
27 | COC(=O)c1cc(-c2ccc(NC(=O)c3ccncc3C)cc2)c(C)s1 [Compound 2, 5-Methyl-4-{4-[(3-methyl-pyridine-4-carbonyl)-amino]-phenyl}-thiophene-2-carboxylic acid methyl ester] | 3 nM

same assay, conditions: PHA 2.5 μg/mL, 20 hours at 37° C., IL-2 by ELISA

Row | SMILES | IC50
28 | Cc1cc(-c2ccncc2)sc1-c1ccc(NC(=O)c2snnc2C)cc1 [Compound 118, 4-Methyl-[1,2,3]thiadiazole-5-carboxylic acid [4-(3-methyl-5-pyridin-4-yl-thiophen-2-yl)-phenyl]-amide] | 6.1 nM
29 | Cc1cc(-c2ccccn2)sc1-c1ccc(NC(=O)c2snnc2C)cc1 [Compound 119, 4-Methyl-[1,2,3]thiadiazole-5-carboxylic acid [4-(3-methyl-5-pyridin-2-yl-thiophen-2-yl)-phenyl]-amide] | 4.8 nM

same assay, conditions: PHA 2.5 μg/mL, 20 hours at 37° C., IL-2 by ELISA, hydrochloride

Row | SMILES | IC50
30 | Cc1cnccc1C(=O)Nc1ccc(-c2sc(-c3ccno3)cc2C)cc1 [Compound 95, 3-Methyl-N-[4-(3-methyl-5-isoxazol-5-yl-thiophen-2-yl)-phenyl]-isonicotinamide, hydrochloride] | 4.4 nM
